Our source for the IC50 values is patent US20240336630A1, “MAP4K1 INHIBITORS” (Blueprint Medicines Corporation, priority 2021, published 2024).

pIC50: −log10 of the molar value.

In general, pIC50 refers to the IC50 on a negative log10 scale, so that one unit is a factor of ten.

The test concerns the target T1, MAP4K1 (HPK1) (Homo sapiens, UniProt Q92918).
T1 construct: purchased Invitrogen
The experiment in a line: Inhibition of MAP4K1 biochemical enzymatic activity (EZReader 2 electrophoretic mobility shift). To be noted: HPK1 (Invitrogen), S6K2tide 1.5 μM, 120 min; ATP 26 μM or 1000 μM, not stated which for Table 3. From the text: MAP4K1 (HPK1) and relevant off-target enzymatic activity was monitored using the Perkin Elmer electrophoretic mobility shift technology platform—the EZReader 2. […] Within the linear, steady-state phase of the kinase enzymatic reaction, the mixed pool of phosphorylated (product) and non-phosphorylated (substrate) peptides was passed through the microfluidic system of the PerkinElmer EZ Reader 2, under an applied electric potential difference. The presence of the phosphate group on the product peptide provided a difference in mass and charge between that of the substrate peptide, resulting in a separation of the substrate and product pools in the sample (Perrin et al. 2010). As the product and substrate peptide mixture passes the lasers within the instrument, these pools are detected (λex=488 nm, λem=568 nm) and resolved as separate peaks. The ratio between these peaks reflects the activity of the compound at that concentration, in that well, under those conditions.
Inhibitors were dissolved in 100% DMSO at a stock concentration of 10 mM. A 100×, 10-point, 4-fold serial dilution of each inhibitor was created in 100% DMSO either manually or on a Hamilton STAR liquid handler, starting at a relevant concentration, usually 1 mM. A volume of 0.130 μL of each concentration was transferred to the relevant wells of a 384-well plate (Greiner 781 201) in duplicate using a TTPLabtech Mosquito nano-litre dispenser. Using a Multidrop Combi, the remaining constituents of the kinase reaction were added to the 130 nL of dosed compound as follows (see table below for final reaction details):
Enzyme activity assays at the ^APPKM for ATP or 1 mM ATP: In each well of a 384-well plate, 0.1-15 nM of untreated enzyme was incubated in a total of 13 μL of buffer (100 mM HEPES pH 7.5, 0.015% Brij 35, 10 mM MgCl2, 1 mM DTT) with 1.5 μM fluorescent peptide and 20-1000 μM ATP, at 25° C., for 60-180 minutes in the presence or absence of a dosed concentration series of compound (1% DMSO final concentration). The kinase reactions were stopped by the addition of 70 μl of Stop buffer (100 mM HEPES pH 7.5, 0.015% Brij 35, 35 mM EDTA and 0.2% of Coating Reagent 3 (Caliper Lifesciences)). The plates were read on a Caliper EZReader 2 as described above.
A general note: In EMSA bound probe runs differently from free probe, usually more slowly.

T1 sequence (Q92918 whole entry): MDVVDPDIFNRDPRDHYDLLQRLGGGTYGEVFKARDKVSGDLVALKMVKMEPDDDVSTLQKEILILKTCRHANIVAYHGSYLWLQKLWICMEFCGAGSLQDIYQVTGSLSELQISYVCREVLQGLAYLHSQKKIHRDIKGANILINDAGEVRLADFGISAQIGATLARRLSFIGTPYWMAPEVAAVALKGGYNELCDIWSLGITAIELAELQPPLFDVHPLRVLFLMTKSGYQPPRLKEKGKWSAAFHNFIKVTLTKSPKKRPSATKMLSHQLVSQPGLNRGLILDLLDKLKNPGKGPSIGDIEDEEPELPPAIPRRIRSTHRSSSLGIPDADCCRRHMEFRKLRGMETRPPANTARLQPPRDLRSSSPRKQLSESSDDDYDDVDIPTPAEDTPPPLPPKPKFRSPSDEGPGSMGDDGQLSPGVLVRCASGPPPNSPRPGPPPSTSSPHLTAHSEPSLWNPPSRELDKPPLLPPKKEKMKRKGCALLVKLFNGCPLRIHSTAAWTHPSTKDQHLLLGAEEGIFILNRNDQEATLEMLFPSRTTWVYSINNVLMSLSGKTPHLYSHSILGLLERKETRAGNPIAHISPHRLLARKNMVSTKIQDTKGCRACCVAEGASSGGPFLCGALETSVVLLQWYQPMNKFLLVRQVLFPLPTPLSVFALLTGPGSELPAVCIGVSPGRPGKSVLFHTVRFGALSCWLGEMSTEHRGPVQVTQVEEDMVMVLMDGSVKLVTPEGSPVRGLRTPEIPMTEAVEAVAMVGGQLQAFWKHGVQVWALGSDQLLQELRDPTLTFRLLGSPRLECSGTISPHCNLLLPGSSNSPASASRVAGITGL

For the molecule `CCOc1ncc([C@@](C)(O)C2CC2)c2cc(Nc3ccc4c(n3)[C@@H](C)C(C)(C)OC4=O)ncc12` (single isomer, unassigned) [Compound 32], the pIC50 is 7.81. `COC[C@@](C)(O)c1cnc(OC2CC2)c2cnc(Nc3ccc4c(n3)[C@@H](C)[C@H](C)OC4=O)cc12` (single isomer, unassigned) [Compound 35]: the pIC50 is 7.17.

As for `C[C@@H]1c2nc(Nc3cc4c([C@@](C)(O)C5CC5)cnc(OCC(F)(F)F)c4cn3)ccc2C(=O)OC1(C)C` (single isomer, unassigned) [Compound 55], the negative-log IC50 (pIC50) was 7.80. As to `CC[C@@](C)(O)c1cnc(O[C@H](C)C[C@@H](C)S(C)(=O)=O)c2cnc(Nc3ccc4c(n3)[C@@H](C)[C@H](C)OC4=O)cc12` (single isomer, unassigned) [Compound 68], the pIC50 is 9.39. In the case of `COc1ncc(C(C)(C)O)c2cc(Nc3ccnc(N4CCC[C@@H]4C)n3)ncc12` [Compound 10], the negative logarithm of the IC50 (pIC50) is 8.92. For the molecule `CC(=O)N1CC(Oc2ncc(C(C)(C)O)c3cc(Nc4ccc5c(n4)[C@@H](C)[C@H](C)OC5=O)ncc23)C1` [Compound 45], the pIC50 was 8.72. Next, `CC1(C)CCc2nc(Nc3cc4c(C(C)(C)O)cnc(OC5CC5)c4cn3)ccc2C(=O)O1` [Compound 22]: 7.63; `CC[C@@H](O)c1cnc(OC2CN(S(C)(=O)=O)C2)c2cnc(Nc3ccc4c(n3)[C@@H](C)C(C)(C)OC4=O)cc12` (single isomer, unassigned) [Compound 64]: 9.17; `CC[C@@](C)(O)c1cnc(OC2CC2)c2cnc(Nc3ccc4c(n3)[C@@H](C)C(C)(C)OC4=O)cc12` (single isomer, unassigned) [Compound 30]: 8.62. Next, `CNc1ncc(C(C)(C)O)c2cc(Nc3ccnc(C(C)(C)C)n3)ncc12` [Compound 3]: 7.64. As for `C[C@@H]1c2nc(Nc3cc4c([C@@](C)(O)C5CCC5)cnc(OC5CC5)c4cn3)ccc2C(=O)OC1(C)C` (single isomer, unassigned) [Compound 43], the negative-log IC50 (pIC50) is 8.17. As for `CCOc1ncc([C@@](C)(O)C2CC2)c2cc(Nc3ccc4c(n3)[C@@H](C)C(C)(C)OC4=O)ncc12` (single isomer, unassigned) [Compound 33], the pIC50 was 9.25. For the molecule `CC[C@@](C)(O)c1cnc(OCC(F)(F)F)c2cnc(Nc3ccc4c(n3)[C@@H](C)C(C)(C)OC4=O)cc12` (single isomer, unassigned) [Compound 52], the negative-log IC50 (pIC50) is 7.63. Turning to `C[C@@H]1OC(=O)c2ccc(Nc3cc4c(C(C)(C)O)cnc(OCC5(F)CC5)c4cn3)nc2[C@H]1C` [Compound 37], the pIC50 was 8.70. Next, `C[C@@H]1c2nc(Nc3cc4c([C@@](C)(O)C5CCC5)cnc(OC5CC5)c4cn3)ccc2C(=O)OC1(C)C` (single isomer, unassigned) [Compound 44]: 8.82. As for `COc1ncc(C(C)(C)O)c2cc(Nc3ccnc(C(C)(C)C)n3)ncc12` [Compound 4], the pIC50 was 8.63. On to `C[C@@H]1c2nc(Nc3cc4c(C(C)(O)C5CC5)cnc(OCC(F)F)c4cn3)ccc2C(=O)OC1(C)C` (stereo partly drawn) [Compound 47], for which the negative-log IC50 (pIC50) is 8.80. On to `C[C@@H]1c2nc(Nc3cc4c([C@@](C)(O)C(F)(F)F)cnc(OC5CC5)c4cn3)ccc2C(=O)OC1(C)C` (single isomer, unassigned) [Compound 51], for which the pIC50 was 7.91. The same measure for `CC[C@@](C)(O)c1cnc(O[C@H]2C[C@@H](S(C)(=O)=O)C2)c2cnc(Nc3ccc4c(n3)[C@@H](C)C(C)(C)OC4=O)cc12` (single isomer, unassigned) [Compound 65]: 9.41; for `CC[C@@](C)(O)c1cnc(O[C@H]2C[C@@H](S(C)(=O)=O)C2)c2cnc(Nc3ccc4c(n3)[C@@H](C)[C@H](C)OC4=O)cc12` (single isomer, unassigned) [Compound 62]: 8.78. Take `CC[C@](C)(O)c1cnc(OC2CC2)c2cnc(Nc3ccc4c(n3)C3(CC3)C(C)(C)OC4=O)cc12` (single isomer, unassigned) [Compound 41]: the pIC50 is 8.18.
